In patent publication EP0705591A2, “Cyclic amidocarboxy surfactants, synthesis and use thereof” (STEPAN COMPANY, priority 1989, dated 1991):

Legend:
[1] = Emulsification in foodstuffs; details: about 1% by weight, substituted for egg yolk
Protocol: Sodium N-octadecylphthalamate was added to a standard cup-cake recipe at actives levels of 0% (control), 1%, 2%, 3%, 4%, and 5%. The N-octadecylphthalamate was admixed into a typical batter as a partial replacement for the shortening, margarine or butter called for in the recipe, baked at a uniform temperature (about 176°C) and time (about 25 minutes). […] A mayonnaise formulation containing about 1% by weight, based on a 100% total weight of formulation, of sodium N-octadecylphthalamate was prepared, with the N-octadecylphthalamate being substituted for egg yolk in a given recipe. […] A dog food was prepared by admixing about 200g of "Generic" beef-flavored dog food with 3g of 100% actives sodium N-octadecylphthalamate. Samples of this dog food were exposed to various temperatures (i.e., 0°C, 43°C and 50°C).

[2] = Solubility in various solvents (vehicles); format: physicochemical; set-up: key: I - INSOLUBLE; S - SOLUBLE; details: 1% actives
Protocol: (§1) Sodium N-octadecylphthalamate, 1% actives, was evaluated for solubility in various solvents and under cold storage (4°C) and freeze-thaw conditions.

[3] = Thermal stability followed by IR spectroscopy; format: physicochemical
Protocol: Thermal stability studies were conducted with neat (100% actives) sample of ammonium N-dodecylphthalamate mulled on sodium chloride plates. […]

[4] = Cold storage and freeze-thaw stability of solutions; format: physicochemical; set-up: key: P - PASS; details: 1% actives; for STABILITY FREEZE THAW: 3 freezing/thawing cycles; for STABILITY COLD STORAGE: 24 hours at 4 °C
Protocol: as §1

Structure (SMILES): CCCCCCCCCCCCCCCCCCNC(=O)c1ccccc1C(=O)[O-].[Na+] [Sodium N-octadecylphthalamate, Sodium N-Octadecylphthalamate]
- mayonnaise emulsion stability [1]: excellent stability
- APPEARANCE 24 HOURS @ RT^0 AFTER HEAT ([2]; vehicle AMMONYX^R LO): S
- APPEARANCE 25^0C ([2]; vehicle AMMONYX^R LO): S
- APPEARANCE 50^0C ([2]; vehicle AMMONYX^R LO): S
- APPEARANCE 24 HOURS @ RT^0 AFTER HEAT ([2]; vehicle AMPHOSOL^R): S
- APPEARANCE 25^0C ([2]; vehicle AMPHOSOL^R): I
- APPEARANCE 50^0C ([2]; vehicle AMPHOSOL^R): S
- APPEARANCE 24 HOURS @ RT^0 AFTER HEAT ([2]; vehicle MAKON^R 10): S
- APPEARANCE 25^0C ([2]; vehicle MAKON^R 10): I
- APPEARANCE 50^0C ([2]; vehicle MAKON^R 10): I
- APPEARANCE 24 HOURS @ RT^0 AFTER HEAT ([2]; vehicle NINOL^R 40-CO): S
- APPEARANCE 25^0C ([2]; vehicle NINOL^R 40-CO): I
- APPEARANCE 50^0C ([2]; vehicle NINOL^R 40-CO): S
- APPEARANCE 24 HOURS @ RT^0 AFTER HEAT ([2]; vehicle STEPANATE^R): I
- APPEARANCE 25^0C ([2]; vehicle STEPANATE^R): I
- APPEARANCE 50^0C ([2]; vehicle STEPANATE^R): I
- imidation ([3]; 3.5 hours at 150°C): only a very small degree of imidation
- imidation ([3]; 64 hours at 150°C): significant formation of N-octadecylphthalimide
- STABILITY FREEZE THAW ([4]; vehicle AMMONYX^R LO): P
- STABILITY COLD STORAGE ([4]; vehicle AMMONYX^R LO): P
- STABILITY FREEZE THAW ([4]; vehicle AMPHOSOL^R): P
- STABILITY COLD STORAGE ([4]; vehicle AMPHOSOL^R): P
- STABILITY FREEZE THAW ([4]; vehicle MAKON^R 10): P
- STABILITY COLD STORAGE ([4]; vehicle MAKON^R 10): P
- STABILITY FREEZE THAW ([4]; vehicle NINOL^R 40-CO): P
- STABILITY COLD STORAGE ([4]; vehicle NINOL^R 40-CO): P
